Measurements: article PMC9652372, “Glycolytic flux control by drugging phosphoglycolate phosphatase” (Nature Communications, 2022)
Changes are numbered by the printed parent chain. Values joined by “and” are separate entries in the source; they are usually repeats but may differ in a detail not shown here. Equal entries are not always repeated.

Columns and labels:
murine PGP-P127E = biological target: T1, murine PGP-P127E (Mus musculus, UniProt Q8CHP8, P127E); test: Isothermal titration calorimetry, PGP-P127E; type: binding; conditions: ITC
T1 construct: His6 (N, cleaved yes); made in house; host or cells: Escherichia coli BL21 (DE3), pETM-11
T1 sequence (Q8CHP8 1-321 P127E): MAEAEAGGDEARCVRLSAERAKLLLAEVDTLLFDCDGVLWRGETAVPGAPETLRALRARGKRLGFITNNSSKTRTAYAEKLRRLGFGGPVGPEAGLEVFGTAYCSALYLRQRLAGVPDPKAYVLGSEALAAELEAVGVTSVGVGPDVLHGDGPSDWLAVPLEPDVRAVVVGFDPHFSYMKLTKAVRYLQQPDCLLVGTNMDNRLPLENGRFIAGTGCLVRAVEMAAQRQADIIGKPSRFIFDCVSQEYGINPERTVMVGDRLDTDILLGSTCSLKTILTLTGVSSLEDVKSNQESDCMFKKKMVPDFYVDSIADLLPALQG
Description: Purified murine PGP-WT or PGP-P127E was dialyzed overnight against ITC buffer (30 mM HEPES, 30 mM NaCl, 5 mM MgCl2, 1 mM tris(2-carboxyethyl)phosphine/TCEP; pH 7.5). All calorimetric measurements were performed at 25 °C on an ITC200 microcalorimeter (GE Healthcare). Experiments were conducted with a fixed concentration of 2% DMSO. […] To reduce the effects of ligand leakage from the syringe during baseline equilibration, the heat release of a single 1.2 μL injection was recorded prior to the actual titration experiment, and discarded during data analysis with Nitpic 2.0.7[45]. To determine background heats of dilution, control experiments of ligand into buffer, buffer into protein and buffer into buffer titrations were performed.

NT5C1A = biological target: T2, NT5C1A (Homo sapiens, UniProt Q9BXI3); test: In vitro phosphatase activity assay, NT5C1A (AMP); type: biochemical; conditions: DMSO control = 100, read-out: NT5C1A activity on AMP in presence of CP relative to DMSO controls
T2 construct: purchased Origene #TP324617
T2 sequence (Q9BXI3 1-368): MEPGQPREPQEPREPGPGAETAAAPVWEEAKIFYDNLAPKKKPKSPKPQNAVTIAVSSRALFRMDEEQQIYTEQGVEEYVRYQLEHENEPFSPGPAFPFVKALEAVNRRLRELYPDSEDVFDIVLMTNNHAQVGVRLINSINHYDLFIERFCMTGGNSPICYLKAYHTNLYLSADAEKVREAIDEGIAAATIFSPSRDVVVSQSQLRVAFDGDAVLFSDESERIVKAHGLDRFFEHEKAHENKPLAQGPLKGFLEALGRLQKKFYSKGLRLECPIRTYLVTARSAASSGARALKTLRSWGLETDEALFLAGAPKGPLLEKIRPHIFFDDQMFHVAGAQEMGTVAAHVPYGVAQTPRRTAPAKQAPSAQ
Description: Purified human NT5C1A (NM_032526, #TP324617) and purified human PHOSPHO1 (NM_178500, #TP314434) were from Origene. […] Data were analyzed with GraphPad Prism 7.04. […] Data are mean values ± S.E.M. of n=3 independent experiments.

murine PGP = biological target: T3, murine PGP (Mus musculus, UniProt Q8CHP8); test: SAR: CP1, CP2 and analogs on PGP phosphatase activity (PG); type: biochemical; design: His6 (N, cleaved yes); made in house; host or cells: Escherichia coli BL21 (DE3), pETM11, co-expressed with groES-groEL-tig
T3 sequence (Q8CHP8 1-321): T1 sequence (Q8CHP8 1-321 P127E) with E127P
Description: However, the DMSO concentration was kept constant across each assay. For SAR experiments, all compound stocks were prepared at 10 mM in 100% DMSO. A constant final DMSO concentration of 0.4% was maintained under all conditions, and solvent control samples contained 0.4% DMSO without compounds.
PGP phosphatase activity were assessed using recombinant, purified murine PGP and PG as a

HT1080 cells = test: Cell proliferation assay (EdU incorporation); type: cell-based, human
Description: Parental HT1080 cells or the indicated CRISPR/Cas9-engineered control (PGP-WT) or PGP-KO cells were grown in complete DMEM. For the expression of PGP-WT or PGP-P127E, cells were transfected with either the pcDNA3 empty vector control or the indicated constructs in pcDNA3 using X-tremeGENE (Roche/Merck), according to the manufacturer’s instructions. […] To assess DNA synthesis, cells were labeled for 2.5 h with 10 μM 5-ethynyl-2'-deoxyuridine (EdU), fixed and permeabilized according to the manufacturer’s recommendations (Click-iT EdU Alexa Fluor 488 imaging kit, Invitrogen/Thermo Fisher). Cells were counterstained with 4′,6-diamidine-2-phenylindole (DAPI), embedded with Fluoromount-G (Thermo Fisher), and imaged on a Nikon TE Eclipse epifluorescence microscope equipped with a 4 × objective and NIS elements software AR 5.02.00. EdU and/or DAPI-positive cells were analyzed using the ImagePro-Plus software version 7.0 (Media Cybernetics). Statistical significance was assessed using GraphPad Prism 9.4.1 software.

PGP^172FDPH>YDEQ = biological target: T4, PGP^172FDPH>YDEQ (Mus musculus, UniProt Q8CHP8, F172Y/H175Q/P174E); conditions: read-out: enzyme activity in presence of CP1 relative to DMSO control (1), mPGP-172FDPH>172YDEQ
T4 sequence (Q8CHP8 1-321 F172Y/P174E/H175Q): T1 sequence (Q8CHP8 1-321 P127E) with E127P, F172Y, P174E, H175Q

PGP^S71R = biological target: T5, PGP^S71R (Mus musculus, UniProt Q8CHP8, S71R); conditions: read-out: enzyme activity in presence of CP1 relative to DMSO control (1), mPGP-S71R, Exp #1-#3
T5 sequence (Q8CHP8 1-321 S71R): T1 sequence (Q8CHP8 1-321 P127E) with S71R, E127P

O=C(Nc1ccccc1C(=O)O)c1ccc(Oc2ccc(C(=O)Nc3ccccc3C(=O)O)cc2)cc1 [CP1]
n, stoichiometry (murine PGP-P127E): 1.15 ± 0.04 | Kd (murine PGP-P127E; […]): 11.9 ± 0.41 µM | remaining activity at 80 µM (NT5C1A; CP log[M] -4.09691): 12.2% | remaining activity at 60 µM (NT5C1A; CP log[M] -4.22185): 13.1% | remaining activity at 50 µM (NT5C1A; CP log[M] -4.30103): 13.1% | remaining activity at 40 µM (NT5C1A; CP log[M] -4.39794): 16.3% | remaining activity at 30 µM (NT5C1A; CP log[M] -4.52288): 38.9% | remaining activity at 25 µM (NT5C1A; CP log[M] -4.60206): 50.7% | remaining activity at 20 µM (NT5C1A; CP log[M] -4.69897): 57% | remaining activity at 15 µM (NT5C1A; CP log[M] -4.82391): 83.3% | remaining activity at 10 µM (NT5C1A; CP log[M] -5): 90.5% | remaining activity at 5 µM (NT5C1A; CP log[M] -5.30103): 104% | remaining activity at […] (NT5C1A; CP log[M] -5.60206): 86.9% | inhibition of mPGP activity at 40 µM CP compared to DMSO control (%) (murine PGP; 40 µM CP, single experiments Exp #1-3): 92.9348% and 99.7175% and 99.6139% | remaining activity at 8 µM (murine PGP; CP log[M] -5.09691, read-out: mPGP activity in presence of CP relative to DMSO controls, mPGP on PG (norm.)): 1.61% | remaining activity at 2 µM (murine PGP; CP log[M] -5.69897, read-out: mPGP activity in presence of CP relative to DMSO controls, mPGP on PG (norm.)): 11.3% | remaining activity at 1 µM (murine PGP; CP log[M] -6, read-out: mPGP activity in presence of CP relative to DMSO controls, mPGP on PG (norm.)): 24.7% | remaining activity at 0.5 µM (murine PGP; CP log[M] -6.30103, read-out: mPGP activity in presence of CP relative to DMSO controls, mPGP on PG (norm.)): 35.5% | remaining activity at […] (murine PGP; CP log[M] -6.60206, read-out: mPGP activity in presence of CP relative to DMSO controls, mPGP on PG (norm.)): 66.1% | remaining activity at 0.125 µM (murine PGP; CP log[M] -6.90309, read-out: mPGP activity in presence of CP relative to DMSO controls, mPGP on PG (norm.)): 76.3% | remaining activity at 0.0625 µM (murine PGP; CP log[M] -7.20412, read-out: mPGP activity in presence of CP relative to DMSO controls, mPGP on PG (norm.)): 88.7% | remaining activity at 0.03125 µM (murine PGP; CP log[M] -7.50515, read-out: mPGP activity in presence of CP relative to DMSO controls, mPGP on PG (norm.)): 93% | remaining activity at 0.0078125 µM (murine PGP; CP log[M] -8.10721, read-out: mPGP activity in presence of CP relative to DMSO controls, mPGP on PG (norm.)): 101% | Edu-positive/DAPI-positive cells (HT1080 cells; KO C2 CP1 (S)): 47.70% and 42.53% and 47.97% | Edu-positive/DAPI-positive cells (HT1080 cells; WT D5 CP1 (S)): 47.76% and 46.38% and 44.69% | Edu-positive/DAPI-positive cells (HT1080 cells; WT D5 EV CP1 (L)): 8.23% and 14.09% and 6.30% | remaining activity at 15.85 µM (PGP^172FDPH>YDEQ; CP1 log[M] -4.80, Exp #1-#3): 82% | remaining activity at 7.943 µM (PGP^172FDPH>YDEQ; CP1 log[M] -5.10, Exp #1-#3): 88% | remaining activity at 3.981 µM (PGP^172FDPH>YDEQ; CP1 log[M] -5.40, Exp #1-#3): 86% | remaining activity at 1.995 µM (PGP^172FDPH>YDEQ; CP1 log[M] -5.70, Exp #1-#3): 98% | remaining activity at 1 µM (PGP^172FDPH>YDEQ; CP1 log[M] -6.00, Exp #2-#3): 97% | remaining activity at 0.5012 µM (PGP^172FDPH>YDEQ; CP1 log[M] -6.30, Exp #1-#3): 88% | remaining activity at 0.2512 µM (PGP^172FDPH>YDEQ; CP1 log[M] -6.60, Exp #1-#3): 92% | remaining activity at 0.1259 µM (PGP^172FDPH>YDEQ; CP1 log[M] -6.90, Exp #1-#3): 86% | remaining activity at 39.81 µM (PGP^S71R; CP1 log[M] -4.40): 25% | remaining activity at 19.95 µM (PGP^S71R; CP1 log[M] -4.70): 38% | remaining activity at 10 µM (PGP^S71R; CP1 log[M] -5.00): 50% | remaining activity at 5.012 µM (PGP^S71R; CP1 log[M] -5.30): 68% | remaining activity at 2.512 µM (PGP^S71R; CP1 log[M] -5.60): 81% | remaining activity at 0.631 µM (PGP^S71R; CP1 log[M] -6.20): 95% | remaining activity at […] (PGP^S71R; CP1 log[M] -6.51): 100% | remaining activity at 0.1549 µM (PGP^S71R; CP1 log[M] -6.81): 92%
